Results from US20240173372A1 (IMDpharm Inc., priority 2021, published 2024).
Values after ≈ are worked out from the molar mass of the structure shown.

System: House Ear Institute-Organ of Corti 1 (HEI-OC1) auditory hair cell
Assay: Apoptosis inhibitory effect on auditory cell line treated with hydrogen peroxide (MTT analysis)
Format: cell-based, mice
Conditions: Mus musculus, HEI-OC1, 100 μM hydrogen peroxide, read-out: EC50 (apoptosis inhibitory effect, hair cells)
Method: House Ear Institute-Organ of Corti 1 (HEI-OC1), an auditory hair cell derived from the Organ of Corti which is the auditory generation organ in mice, was cultured in an incubator at 33° C. in the presence of 10% CO2 using DMEM (high-glucose Dulbecco's Eagle's medium, Sigma-Aldrich Co., St. Louis, USA) culture including 10% fetal bovine serum (FBS; WELGENE Inc., Gyeongsangbuk-do, Korea) and 50 U/mL INF-γ (Peprotech Inc., Seoul, Korea) without addition of antibiotics. In order to generate reactive oxygen species (ROS) caused by oxidative stress that occurs in the process of inducing noise induced hearing loss, cell lines with noise induced hearing loss were established by treating hydrogen peroxide.

`COc1cccc(CCc2ccccc2OCC(CN(C)C)OC(=O)CCC(=O)O)c1` (single isomer, unassigned; (-)) [sarpogrelate, (−)-4-[1-dimethylamino-3-[2-[2-(3-methoxyphenyl)ethyl]phenoxy]propan-2-yl]oxy-4-oxobutanoic acid] was tested, and the EC50 was 26.4 µg/mL (≈ 61.5 µM).
